Laboratory results from patent US8101750B2, “Process for the manufacturing of the compound 2-hydroxy-3-[5-(morpholin-4-ylmethyl)pyridin-2-yl]1H-indole-5-carbonitrile 701” (AstraZeneca AB, priority 2007, dated 2012).

Question: With `Cc1ccc(CN2CCOCC2)cn1` as the compound, how does the melting point read?
Answer: The melting point was 51 to 52 °C.
